According to article PMC3914206:

Experiments:
Format in all cases: binding
panel of 442 kinases [1] = biological target: T1, panel of 442 kinases (Homo sapiens, UniProt Q96RR4); conditions: Compound Concentration 10 µM
T1 construct: purchased KINOMEscan
Excerpt: (§1) We assessed the selectivity of members of this scaffold using the KINOMEscan methodology across a near comprehensive panel of 442 kinases [[18,27]].

panel of 442 kinases [2] = biological target: T2, panel of 442 kinases (Homo sapiens, UniProt Q9UKE5); conditions: kinase TNIK; compound concentration 10 µM
T2 construct: purchased KINOMEscan
T2 sequence (Q9UKE5 whole entry): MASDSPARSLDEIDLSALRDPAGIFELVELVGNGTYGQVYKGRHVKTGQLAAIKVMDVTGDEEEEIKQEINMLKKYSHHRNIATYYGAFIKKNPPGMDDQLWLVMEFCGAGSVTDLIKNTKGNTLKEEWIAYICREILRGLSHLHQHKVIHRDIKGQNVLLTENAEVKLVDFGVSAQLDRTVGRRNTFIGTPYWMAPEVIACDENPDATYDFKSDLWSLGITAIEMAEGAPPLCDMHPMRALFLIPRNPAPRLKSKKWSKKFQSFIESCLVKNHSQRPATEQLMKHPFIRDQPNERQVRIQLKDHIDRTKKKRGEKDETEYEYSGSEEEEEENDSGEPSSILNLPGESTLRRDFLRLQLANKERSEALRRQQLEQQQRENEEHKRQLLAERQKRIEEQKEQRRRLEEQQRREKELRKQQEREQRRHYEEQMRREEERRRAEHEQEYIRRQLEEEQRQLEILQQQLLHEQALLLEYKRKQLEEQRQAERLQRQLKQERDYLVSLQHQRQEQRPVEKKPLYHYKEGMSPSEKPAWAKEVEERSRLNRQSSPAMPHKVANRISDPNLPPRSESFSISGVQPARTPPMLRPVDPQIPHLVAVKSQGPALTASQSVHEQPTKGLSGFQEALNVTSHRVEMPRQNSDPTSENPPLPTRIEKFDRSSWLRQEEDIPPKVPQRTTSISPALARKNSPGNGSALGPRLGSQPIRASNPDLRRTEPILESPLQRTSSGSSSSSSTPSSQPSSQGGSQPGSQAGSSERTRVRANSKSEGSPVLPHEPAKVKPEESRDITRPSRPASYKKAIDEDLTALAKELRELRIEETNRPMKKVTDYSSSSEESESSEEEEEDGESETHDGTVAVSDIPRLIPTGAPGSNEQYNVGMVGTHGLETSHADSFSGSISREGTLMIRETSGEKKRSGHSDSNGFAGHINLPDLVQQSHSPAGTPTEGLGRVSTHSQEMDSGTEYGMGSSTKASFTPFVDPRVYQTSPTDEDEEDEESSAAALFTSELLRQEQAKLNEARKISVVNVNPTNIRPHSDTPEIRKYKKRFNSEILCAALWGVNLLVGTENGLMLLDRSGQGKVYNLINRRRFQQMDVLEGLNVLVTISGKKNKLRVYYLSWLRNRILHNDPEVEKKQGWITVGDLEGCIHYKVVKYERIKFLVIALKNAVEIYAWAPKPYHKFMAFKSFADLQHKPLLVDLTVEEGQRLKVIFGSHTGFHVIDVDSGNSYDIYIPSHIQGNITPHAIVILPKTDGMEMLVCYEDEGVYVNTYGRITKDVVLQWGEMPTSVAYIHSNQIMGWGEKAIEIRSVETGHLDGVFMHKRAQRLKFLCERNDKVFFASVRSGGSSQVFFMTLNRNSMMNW
Excerpt: as §1

panel of 442 kinases [3] = biological target: T3, panel of 442 kinases (Homo sapiens, UniProt Q9BQI3); conditions: Compound Concentration 10 µM
T3 construct: purchased KINOMEscan
T3 sequence (Q9BQI3 whole entry): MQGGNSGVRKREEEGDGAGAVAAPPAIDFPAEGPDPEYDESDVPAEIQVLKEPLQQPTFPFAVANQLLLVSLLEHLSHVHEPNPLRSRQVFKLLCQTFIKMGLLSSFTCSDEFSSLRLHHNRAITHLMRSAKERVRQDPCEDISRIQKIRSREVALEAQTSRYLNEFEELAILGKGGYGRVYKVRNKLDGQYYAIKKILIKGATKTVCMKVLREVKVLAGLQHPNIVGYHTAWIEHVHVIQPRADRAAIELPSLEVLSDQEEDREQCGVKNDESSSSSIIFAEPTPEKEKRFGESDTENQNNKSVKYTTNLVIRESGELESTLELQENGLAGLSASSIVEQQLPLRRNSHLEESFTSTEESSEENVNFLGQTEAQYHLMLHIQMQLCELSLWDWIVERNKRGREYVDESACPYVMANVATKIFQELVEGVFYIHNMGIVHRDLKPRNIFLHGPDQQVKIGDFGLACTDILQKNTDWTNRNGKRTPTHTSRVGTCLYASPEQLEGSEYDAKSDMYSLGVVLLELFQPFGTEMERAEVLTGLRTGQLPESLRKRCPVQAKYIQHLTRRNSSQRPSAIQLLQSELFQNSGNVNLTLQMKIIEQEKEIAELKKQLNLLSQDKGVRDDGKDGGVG
Excerpt: as §1

T1 sequence (Q96RR4 whole entry): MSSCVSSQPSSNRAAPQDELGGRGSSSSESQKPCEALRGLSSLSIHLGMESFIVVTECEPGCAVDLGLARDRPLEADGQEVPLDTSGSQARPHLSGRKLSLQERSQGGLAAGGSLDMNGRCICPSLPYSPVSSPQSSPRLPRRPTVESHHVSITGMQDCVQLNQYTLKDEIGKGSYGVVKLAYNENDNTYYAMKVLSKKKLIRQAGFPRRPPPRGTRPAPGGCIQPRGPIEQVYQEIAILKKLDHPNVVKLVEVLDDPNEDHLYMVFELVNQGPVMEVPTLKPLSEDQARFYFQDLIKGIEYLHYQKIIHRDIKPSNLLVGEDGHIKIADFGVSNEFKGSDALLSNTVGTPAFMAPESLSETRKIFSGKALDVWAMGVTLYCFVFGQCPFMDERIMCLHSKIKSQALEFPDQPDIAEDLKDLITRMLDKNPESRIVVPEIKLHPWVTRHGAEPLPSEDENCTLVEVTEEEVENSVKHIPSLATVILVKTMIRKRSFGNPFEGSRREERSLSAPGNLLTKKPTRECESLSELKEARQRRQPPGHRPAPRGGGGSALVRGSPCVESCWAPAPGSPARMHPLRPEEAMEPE

Compound	KINOMEscan: CAMKK2 (panel of 442 kinases [1])	% Ctrl, TNIK (panel of 442 kinases [2]) [% Ctrl]	KINOMEscan: EIF2AK1 (panel of 442 kinases [3])
COc1cc(C(=O)N2CCC(N3CCN(C)CC3)CC2)ccc1Nc1ncc2c(n1)N1CCc3cccc(c31)C(=O)N2C [Compound 24]	52	56	
CCOc1cc(C(=O)N2CCC(N3CCN(C)CC3)CC2)ccc1Nc1ncc2c(n1)N(C1CCCC1)c1ccccc1C(=O)N2C [Compound 26]	100	94	100
COc1cc(C(=O)N2CCC(N3CCN(C)CC3)CC2)ccc1Nc1ncc2c(n1)N(C1CCCC1)c1ccccc1C(=O)N2C [Compound 25, 11-cyclopentyl-2-((2-methoxy-4-(4-(4-methylpiperazin-1-yl)piperidine-1-carbonyl)phenyl)amino)-5-methyl-5H-benzo[e]pyrimido[5,4-b][1,4]diazepin-6(11H)-one]	78	100	100
COc1cc(C(=O)N2CCC(N3CCN(C)CC3)CC2)ccc1Nc1ncc2c(n1)N(C)c1ccccc1C(=O)N2C [15 (LRRK2-IN-1)]	31	100	100
